According to patent publication US20250221996A1, “HETEROCYCLIC COMPOUNDS, COMPOSITIONS THEREOF, AND METHODS OF TREATMENT THEREWITH” (BeiGene, Ltd., priority 2022, published 2025):

The compounds below were run on pERK1/2(THR202/TYR204) level in AsPC-1 cells (assay: pERK assay (HTRF) in AsPC-1 cell line). Details: 2 h compound treatment.
Format: cell-based
Experimental: AsPC-1 cell line was used in this study. Cells were maintained in RPMI-1640 supplemented with 10% fetal bovine serum (Thermo Fisher), 50 units/mL penicillin and streptomycin (Thermo Fisher) and kept at 37° C. in a humidified atmosphere of 5% CO2 in air. Cells were reinstated from frozen stocks that were laid down within 30 passages from the original cells purchased. 30000 cells per well were seeded into a 96-well plate and incubated overnight. Cells were treated with a 10-point dilution series. The final compound concentration is from 0 to 10 μM. After 2 h compound treatment, cells were lysed, and the pERK1/2(THR202/TYR204) level in the cell lysates was detected by HTRF kit (Cisbio). In brief, a total of 16 μL of cell lysate from each well of a 96-well plate was transferred to a 384-well white assay plate. Lysate from each well was incubated with 2 μL of Eu3+-cryptate (donor) labeled anti-phospho-ERK1/2 and 2 μL of D2 (acceptor) labeled anti-phospho-ERK1/2 antibodies (Cisbio) overnight in dark at room temperature. When donor and acceptor are in close proximity, excitation of the donor with laser triggers a Fluorescence Resonance Energy Transfer (FRET) towards the acceptor, which in turn fluoresces at 655 nm wavelength. FRET signals were measured using a PHERAstar FSX reader (BMG Labtech). IC50 determination was performed by fitting the curve of percent inhibition versus the log of the inhibitor concentration using Dotmatics.

Row | SMILES | IC50
1 | N#Cc1c(N)sc2c(F)ccc(-c3c(C(F)(F)F)cc4c(N5CC6CCC(C5)N6)nc(OCC56COC(C(F)F)(C5)C6)nc4c3F)c12 (single isomer, unassigned) [Example 1-Isomer 2, 4-(4-(3,8-diazabicyclo[3.2.1]octan-3-yl)-2-((1-(difluoromethyl)-2-oxabicyclo[2.1.1]hexan-4-yl)methoxy)-8-fluoro-6-(trifluoromethyl)quinazolin-7-yl)-2-amino-7-fluorobenzo[b]thiophene-3-carbonitrile] | 84 nM
2 | N#Cc1c(N)sc2c(F)ccc(-c3c(C(F)(F)F)cc4c(N5CC6CCC(C5)N6)nc(OCC5(C#N)CCOCC5)nc4c3F)c12 (single isomer, unassigned) [Example 22-Isomer 2, 4-(((7-(2-amino-3-cyano-7-fluorobenzo[b]thiophen-4-yl)-4-(3,8-diazabicyclo[3.2.1]octan-3-yl)-8-fluoro-6-(trifluoromethyl)quinazolin-2-yl)oxy)methyl)tetrahydro-2H-pyran-4-carbonitrile] | 72 nM
3 | N#Cc1c(N)sc2c(F)ccc(-c3c(C(F)(F)F)cc4c(N5CC6CCC(C5)N6)nc(OCC5(C#N)CCOCC5)nc4c3F)c12 (single isomer, unassigned) [Example 22-Isomer 1, 4-(((7-(2-amino-3-cyano-7-fluorobenzo[b]thiophen-4-yl)-4-(3,8-diazabicyclo[3.2.1]octan-3-yl)-8-fluoro-6-(trifluoromethyl)quinazolin-2-yl)oxy)methyl)tetrahydro-2H-pyran-4-carbonitrile] | > 10000 nM
4 | N#Cc1c(N)sc2c(F)ccc(-c3c(Cl)cc4c(N5CC6CCC(C5)N6)nc(OCC56COC(C5)C6)nc4c3F)c12 (single isomer, unassigned) [Example 2-Isomer 2, 4-(2-((2-oxabicyclo[2.1.1]hexan-4-yl)methoxy)-4-(3,8-diazabicyclo[3.2.1]octan-3-yl)-6-chloro-8-fluoroquinazolin-7-yl)-2-amino-7-fluorobenzo[b]thio phene-3-carbonitrile] | > 10000 nM

Same assay, conditions: Homo sapiens, ASPC1, 2 h, 2 h compound treatment

Row | SMILES | IC50
5 | N#Cc1c(N)sc2c(F)ccc(-c3c(C(F)(F)F)cc4c(N5CC6CCC(C5)N6)nc(OCC5(C(F)F)CCOC5)nc4c3F)c12 (single isomer, unassigned) [Example 14-Isomer 3, 4-(4-(3,8-diazabicyclo[3.2.1]octan-3-yl)-2-((3-(difluoromethyl)tetrahydrofuran-3-yl)methoxy)-8-fluoro-6-(trifluoromethyl)quinazolin-7-yl)-2-amino-7-fluorobenzo[b]thiophene-3-carbonitrile] | 172 nM
6 | CCC12CC(COc3nc(N4CC5CCC(C4)N5)c4cc(C(F)(F)F)c(-c5ccc(F)c6sc(N)c(C#N)c56)c(F)c4n3)(CO1)C2 [Example 12, 4-(4-(3,8-diazabicyclo[3.2.1]octan-3-yl)-2-((1-ethyl-2-oxabicyclo [2.1.1]hexan-4-yl)methoxy)-8-fluoro-6-(trifluoromethyl)quinazolin-7-yl)-2-amino-7-fluorobenzo[h]thiophene-3-carbonitrile] | 1730 nM
7 | N#Cc1c(N)sc2c(F)ccc(-c3c(C(F)(F)F)cc4c(N5CC6CCC(C5)N6)nc(OCC56COC(COC7CC7)(C5)C6)nc4c3F)c12 [Example 47, 4-(4-(3,8-diazabicyclo[3.2.1]octan-3-yl)-2-((1-(cyclopropoxymethyl)-2-oxabicyclo[2.1.1]hexan-4-yl)methoxy)-8-fluoro-6-(trifluoromethyl)quinazolin-7-yl)-2-amino-7-fluorobenzo[b]thiophene-3-carbonitrile] | 154 nM
8 | N#Cc1c(N)sc2c(F)ccc(-c3c(C(F)(F)F)cc4c(N5CC6CCC(C5)N6)nc(OCC5(O)CCOC5)nc4c3F)c12 (stereo not shown) [Example 6, 4-(4-(3,8-diazabicyclo[3.2.1]octan-3-yl)-8-fluoro-2-((3-hydroxytetrahydrofuran-3-yl)methoxy)-6-(trifluoromethyl)quinazolin-7-yl)-2-amino-7-fluoro benzo[b]thiophene-3-carbonitrile] | 187 nM
9 | CC12CC(COc3nc(N4CC5CCC(C4)N5)c4cc(C(F)(F)F)c(-c5cc(O)cc6ccccc56)c(F)c4n3)(CO1)C2 [Example 29, 4-(4-(3,8-diazabicyclo[3.2.1]octan-3-yl)-8-fluoro-2-((1-methyl-2-oxabicyclo[2.1.1]hexan-4-yl)methoxy)-6-(trifluoromethyl)quinazolin-7-yl)naphthalen-2-ol] | > 10000 nM
10 | CCc1cc2c(N3CC4CCC(C3)N4)nc(OCC34COC(C)(C3)C4)nc2c(F)c1-c1ccc(F)c2sc(N)c(C#N)c12 [Example 52, 4-(4-(3,8-diazabicyclo[3.2.1]octan-3-yl)-6-ethyl-8-fluoro-2-((1-methyl-2-oxabicyclo[2.1.1]hexan-4-yl)methoxy)quinazolin-7-yl)-2-amino-7-fluorobenzo[b]thiophene-3-carbonitrile] | 235 nM
11 | CC1(COc2nc(N3CC4CCC(C3)N4)c3cc(C(F)(F)F)c(-c4ccc(F)c5sc(N)c(C#N)c45)c(F)c3n2)CN(S(C)(=O)=O)C1 [Example 38, 4-(4-(3,8-diazabicyclo[3.2.1]octan-3-yl)-8-fluoro-2-((3-methyl-1-(methylsulfonyl)azetidin-3-yl)methoxy)-6-(trifluoromethyl)quinazolin-7-yl)-2-amino-7-fluorobenzo[b]thiophene-3-carbonitrile] | 180 nM
12 | N#Cc1c(N)sc2c(F)ccc(-c3c(C(F)(F)F)cc4c(N5CC6CCC(C5)N6)nc(OCC56COC(C#N)(C5)C6)nc4c3F)c12 [Example 30, 4-(((7-(2-amino-3-cyano-7-fluorobenzo[b]thiophen-4-yl)-4-(3,8-diazabicyclo[3.2.1]octan-3-yl)-8-fluoro-6-(trifluoromethyl)quinazolin-2-yl)oxy)methyl)-2-oxabicyclo[2.1.1]hexane-1-carbonitrile] | 71 nM
13 | N#Cc1c(N)sc2c(F)ccc(-c3c(C(F)(F)F)cc4c(N5CC6CCC(C5)N6)nc(OCC5CC6(COC6)C5)nc4c3F)c12 [Example 33, 4-(2-((2-oxaspiro[3.3]heptan-6-yl)methoxy)-4-(3,8-diazabicyclo [3.2.1]octan-3-yl)-8-fluoro-6-(trifluoromethyl)quinazolin-7-yl)-2-amino-7-fluoro benzo[b]thiophene-3-carbonitrile] | 163 nM
14 | COC1(COc2nc(N3CC4CCC(C3)N4)c3cc(C(F)(F)F)c(-c4ccc(F)c5sc(N)c(C#N)c45)c(F)c3n2)CC1 [Example 45, 4-(4-(3,8-diazabicyclo[3.2.1]octan-3-yl)-8-fluoro-2-((1-methoxycyclopropyl)methoxy)-6-(trifluoromethyl)quinazolin-7-yl)-2-amino-7-fluorobenzo[b] thiophene-3-carbonitrile] | 115 nM
15 | CC12CC(COc3nc(N4C5CNCC4COC5)c4cc(C(F)(F)F)c(-c5ccc(F)c6sc(N)c(C#N)c56)c(F)c4n3)(CO1)C2 [Example 16, 4-(4-(3-oxa-7,9-diazabicyclo[3.3.1]nonan-9-yl)-8-fluoro-2-((1-methyl-2-oxabicyclo[2.1.1]hexan-4-yl)methoxy)-6-(trifluoromethyl)quinazolin-7-yl)-2-amino-7-fluorobenzo[b]thiophene-3-carbonitrile] | 143 nM
16 | N#Cc1c(N)sc2c(F)ccc(-c3c(C(F)(F)F)cc4c(N5CC6CCC(C5)N6)nc(OCC56CCC(C5)OC6)nc4c3F)c12 (stereo not shown) [Example 7, 4-(2-((2-oxabicyclo[2.2.1]heptan-4-yl)methoxy)-4-(3,8-diazabicyclo[3.2.1]octan-3-yl)-8-fluoro-6-(trifluoromethyl)quinazolin-7-yl)-2-amino-7-fluorobenzo[b]thiophene-3-carbonitrile] | 112 nM
